Measurements from patent US20060198882A1, “Stable liposomes or micelles comprising a sphinolipid and a peg-lipopolymer” (priority 2003, published 2006).
Several values for one entry are separate records, joined by “and”; a condition that tells them apart may be missing. Identical values can stand only once.

How the values were obtained:
[1] = Partition in the two phases of the Dole system; type: physicochemical; conditions: for % of lipid in heptane-rich upper phase / % of lipid in isopropanol/water lower phase: Dole two phase system
Experimental: The distribution of the C18 sphingosine-based ceramides with different acyl chain lengths and of DMS between the polar phase and respectively less polar phase (as defined below) of the Dole two phase system was determined. […] The different ceramides included: short (C2 Cer and C4 Cer), medium (C6 Cer and C8 Cer), long (C16 Cer). […] In: Liposome Technology 2nd Edn., G Gregoriadis (Ed.) CRC Press, Boca Raton, 1993, vol. 1, pp: 527-616]. The amount of each of the lipids used in each of the two phases was measured by thin-layer chromatography (TLC). For ceramide quantification TLC was developed in a solvent system containing chloroform/methanol (95:5 v/v). For DMS quantification TLC was developed in a solvent system containing chloroform/methanol/ammonia (89/9/2 v/v). Further, the TLC plate was sprayed with Copper sulfate reagent composed of 100 g anhydrous copper sulfate containing 80 ml of phosphoric acid (85%), %) dissolved in 600 ml of DDW. Copper sulphate reagent was applied to the plates by spraying, then heated and lipids appeared as dark brown spot. […] Quantity of ceramides in each phase was calculated from a standard curve of appropriate ceramide. […] (1993)Supra]. The distribution between the two Dole system phases was determined by the equation (as exemplified for ceramide): [formula] [formula] Where Kp denotes the partition coefficient of a given lipid or amphiphile referred to in the equation as lipid; Cer denotes ceramide; up is an abbreviation for the heptane rich low polarity upper phase and lp is an abbreviation for the polar isopropanol water rich lower phase.

[2] = Critical aggregation concentration (CAC) by surface tension; type: physicochemical; conditions: pure water containing 0.3% ethanol, room temperature
Experimental: The critical aggregation concentration (CAC) of the ceramides is the concentration at which aggregation of monomers to an amphiphile assembly occurs. CAC of the C2, C6, and C16 ceramides was determined in filtered pure water containing 0.3% ethanol by measuring at room temperature surface tension as a function of ceramide concentration. The measurements were done using μThrougs Kibron System (Helsinki, Finland) which determine the surface tension at the air/water interface. The measurement at each concentration was repeated until a constant value of surface tension was reached [Zuidam, N. and Barenholz, Y., Supra (1997)]

[3] = Injection of ceramide dispersions into mice (tolerance, weight); conditions: for decrease from initial weight: mouse, in vivo
Experimental: […] of C2Cer and C6Cer dispersions in ethanol or in ethanol:dodecane (98:2) (required final blood concentration of about 3.3%) were injected to the Balb/c female mice (8 week old).
In addition, 1 μmole/mouse of C2Cer and C6Cer dispersions in ethanol or in ethanol:dodecane (98:2) in isotonic BSA solution (BSA 2 mM, NaCl 112 mM, pH 7.4) was injected in order to reach the final ethanol or ethanol:dodecane blood concentration of about 3.3%. For the preparation of ceramide-BSA complexes the 33 μl of 30 mM stock of C2Cer and C6Cer dispersions were incubated for 30 min at 30° C. with 417 μl of 2 mM BSA solution in order to reach the ceramide/BSA mole ratio of 1/0.8, respectively [Hannun, Supra, 2000].

[4] = system: C-26 colon carcinoma cells; assay: Cell uptake and metabolism of radiolabelled ceramide assemblies; type: cell-based, human
Experimental: C-26 colon carcinoma cells were seeded into six-well plates at density of 2.5×10^5 in 2 ml of complete RPMI-1640 medium supplemented with 10% FCS, antibiotics, and glutamine. The cells were allowed to grow for 48 hr and replaced with 1 ml of complete serum containing medium. […] The radioactive doses of ceramides and lipid (dpm/μmole) are described in Table 2C. After these predefined time periods cells were tripsinized and washed twice with PBS. Cell lipids, lipids of the medium and lipids of the wash fraction were extracted by the Bligh and Dyer procedure [E. G. Bligh and W. J. Dyer, Can. J. Biochem. Physiol. 37:[…] (1959)]. Briefly, chloroform, methanol, and DDW were added to the cells at a final ratio of 1:2:1 (by vol.), and incubated for 10 min at 45° C. Then the mixtures were centrifuged at […] for 5 min. The supernatants containing the lipids were taken and chloroform and DDW were added in order to reach the final volume ratio of chloroform: methanol:DDW of 1:1:1. Two phases were formed and well separated after centrifugation. The water/methanol rich upper phase was removed while the chloroform-rich lower phase which contains >99% of the lipids was washed once with synthetic upper phase composed of chloroform:methanol:DDW (6:94:96, by volume). The lipid-containing lower phase was dried under nitrogen stream and redissolved in chloroform: methanol (2:1, by vol.) ready for analysis.
The lipid mixture was applied to silica gel TLC plates and developed in the solvent system of chloroform:methanol: DDW (84:16:1,5, by vol.) and detected by Copper sulfate reagent. The TLC plates were photographed by the Fluor-S-Multyimiger (Bio-Rad, Hercules, Calif.). Migration of lipids from cells extracts, medium, and wash fractions was visualized in comparison to a different well established commercial markers. The retention factor RF (defined as the distance traveled by the compound divided by the distance traveled by the solvent) of various molecules are as follows: SPM-0.04, EPC or HSPC-0.1, DOTAP: 0.24, GalCer: 0.29-0.38, GluCer: 0.4, C6 Cer: 0.68, and C16 Cer: […].
The TLC plates were then subjected overnight to imaging plate and the radioactivity was measured by Bio-Imaging analyzer (FUJI BAS 1000, Japan) then the radioactive bands were scraped from the TLC plate, placed into the test tube containing scintillation medium Opti-Fluor (Packard Bioscience, Groningen, Netherlands) and the radioactivity was counted by a β-counter.
The uptake and metabolism of radiolabelled liposomal or free C6Cer were studied in C-26 colon carcinoma cells. Cells were incubated with either free ^14C6Cer (in ethanol) or with liposomal C6Cer. Total lipids were extracted and the level of uptake and metabolites were determined from cells and growth medium as described in Materials and Methods.

Structure (SMILES) | Kp (heptane rich/isopropanol and water rich partition coefficient) [1] | % of lipid in heptane-rich upper phase [1] | % of lipid in isopropanol/water lower phase [1] | CAC (critical aggregation concentration) [2] | decrease from initial weight [3] | Cell uptake (%) of ^14C6Cer ([4]; 2 hr) [%] | Cell uptake (nmole) of ^14C6Cer ([4]; 2 hr, 20 μM ceramide) [nmol] | Cell uptake (%) of ^14C6Cer ([4]; 24 hr) [%] | Cell uptake (nmole) of ^14C6Cer ([4]; 24 hr) [nmol] | Cell uptake (%) of ^14C6Cer ([4]; 72 hr) [%] | Cell uptake (nmole) of ^14C6Cer ([4]; 72 hr) [nmol] | death of mice ([3]; ethanol:dodecane (98:2) dispersions)
CCCCCCCCCCCCC/C=C/[C@@H](O)[C@H](CO)NC(C)=O [C2Cer, N-Acetyl-D-erythro-sphingosine] | 0.54 | 21% and 21.2% | 79% and 78.8% | 10^−6M | about 5% |  |  |  |  |  |  | 
CCCCCCCCCCCCC/C=C/[C@@H](O)[C@H](CO)NC(=O)CCCCC [C6Cer, N-hexanoyl-D-erythro-sphingosine] | 3.17 | 63% and 62.7% | 37.3% |  | about 5% | 39.9 | 13.7 | 93.7 | 34.5 | 72 | 24.5 | died during the injection
CCCCCCCCCCCCC/C=C/[C@@H](O)[C@H](CO)NC(=O)CCCCCCCCCCCCCCC [C16Cer, N-palmitoyl-D-erythro-sphingosine] | 8.21 | 89% | 11% |  |  |  |  |  |  |  |  | 
